Data on twelve compounds can be found in BindingDB's records for doi:10.1021/jm00222a039 (1978).

This assay can be described thus: Inhibition of HMG-coA reductase in CD rat liver microsomal-cytosol fraction assessed as inhibition of fatty acid synthesis using [2-14C]acetate as substrate after 90 mins by scintillation counting analysis. A general note: Liver microsomes are vesicles of endoplasmic reticulum, rich in cytochrome P450 enzymes.
Consider `CC(CCc1ccc(-c2ccccc2)cc1)CC(=O)O` (configuration not stated), for which the half-inhibitory concentration (IC50) – broadly, the concentration needed to halve the response being measured – is 80 µM. Regarding `CC(CCc1ccc2oc3ccccc3c2c1)CC(=O)O` (configuration not stated), the IC50 was found to be 1600 µM. The figure for `CC(CC(=O)O)CC(=O)c1ccc2sc3ccccc3c2c1` (configuration not stated) is 930 µM. The figure for `CC(CC(=O)O)CC(=O)c1ccc2oc3ccccc3c2c1` (configuration not stated) is 430 µM; for `CC(CC(=O)O)CC(=O)c1ccc(Sc2ccccc2)cc1` (configuration not stated) it is 780 µM. The figure for `CC(CCc1ccc2sc3ccccc3c2c1)CC(=O)O` (configuration not stated) is 860 µM; for `CC(CCc1ccc(Sc2ccccc2)cc1)CC(=O)O` (configuration not stated) it is 100 µM. In the case of `CC(CCc1ccc2c(c1)-c1ccccc1S2(=O)=O)CC(=O)O` (configuration not stated), the 50% inhibitory concentration (IC50) amounted to 30 µM. The figure for `CC(CCc1ccc(Oc2ccccc2)cc1)CC(=O)O` (configuration not stated) is 80 µM; for `CC(CC(=O)O)CC(=O)c1ccc(-c2ccccc2)cc1` (configuration not stated) it is 1200 µM. The figure for `CC(CCc1ccc(S(=O)(=O)c2ccccc2)cc1)CC(=O)O` (configuration not stated) is 80 µM; for `CC(CC(=O)O)CC(=O)c1ccc(Oc2ccccc2)cc1` (configuration not stated) it is 2100 µM.
